Activity calls are given as the source filed them. The rule behind the calls is not given here.
Each molecule was assayed against T1, Prolyl endopeptidase (Homo sapiens) (UniProt P48147) (assay: Displacement of fluorophosphonate rhodamine from human cloned prolyl oligopeptidase expressed in Escherichia coli at 5 to 100 uM by SDS-PAGE).
T1 sequence (whole entry): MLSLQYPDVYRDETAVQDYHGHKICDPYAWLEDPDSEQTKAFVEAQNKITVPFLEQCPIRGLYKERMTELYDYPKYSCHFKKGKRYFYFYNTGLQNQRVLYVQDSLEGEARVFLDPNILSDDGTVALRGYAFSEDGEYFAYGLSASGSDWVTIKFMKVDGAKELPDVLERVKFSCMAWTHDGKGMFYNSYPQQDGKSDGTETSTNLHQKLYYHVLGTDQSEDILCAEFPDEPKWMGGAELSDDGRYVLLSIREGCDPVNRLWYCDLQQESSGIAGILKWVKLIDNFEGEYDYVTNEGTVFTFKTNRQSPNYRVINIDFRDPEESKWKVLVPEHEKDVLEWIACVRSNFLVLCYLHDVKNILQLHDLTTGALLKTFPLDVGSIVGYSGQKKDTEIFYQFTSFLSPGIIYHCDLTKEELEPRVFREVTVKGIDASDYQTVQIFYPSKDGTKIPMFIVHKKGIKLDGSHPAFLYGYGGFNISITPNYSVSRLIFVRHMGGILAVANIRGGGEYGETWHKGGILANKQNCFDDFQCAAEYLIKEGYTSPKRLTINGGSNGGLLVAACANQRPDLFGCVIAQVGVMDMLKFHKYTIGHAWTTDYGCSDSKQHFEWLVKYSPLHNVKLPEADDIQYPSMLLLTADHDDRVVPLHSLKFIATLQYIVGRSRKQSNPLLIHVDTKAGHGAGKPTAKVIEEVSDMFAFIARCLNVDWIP

Activity, active:
C#CCCCC(=O)N[C@@H](Cc1ccc(C(=O)c2ccccc2)cc1)C(=O)N1CCC[C@H]1C(=O)N1CCC[C@H]1C=O, C#CCCCC(=O)N[C@@H](Cc1ccc(C(=O)c2ccccc2)cc1)C(=O)NCCOCCOCCOCCOCC(=O)N1CCC[C@H]1C(=O)N1CCC[C@H]1C=O, C#CCCCC(=O)N[C@@H](Cc1ccc(C(=O)c2ccccc2)cc1)C(=O)NCCCCCC(=O)N1CCC[C@H]1C(=O)N1CCC[C@H]1C=O
